Test results taken from ChEMBL document CHEMBL5608181, “Discovery of indazole inhibitors for heat shock protein 90 as anti-cancer agents” (Eur J Med Chem, 2024).
Calls of active or inactive are those of the source. The rule behind the calls is not given here.

Tests used:
[1] = AUC/dose in Sprague-Dawley rat at 10 mg/kg, po; type: ADME, organism-based; settings: in vivo
[2] = Metabolic stability in rat liver microsomes assessed as parent compound remaining measured after 30 mins; type: ADME, Microsome; settings: read-out: Stability
BT-474 [3] = experiment: Downregulation of AKT expression in human Trastuzumab-sensitive BT474 cell at 10 uM measured upto 72 hrs by Western blot analysis; type: functional, cell-based
[4] = target: Heat shock protein HSP 90-alpha (Homo sapiens) (UniProt P07900); experiment: Inhibition of HSP90alpha in human Trastuzumab-sensitive BT474 cells assessed as reduction in HER2 phosphorylation level at Tyr1221/1222 residues at 10 uM measured upto 72 hrs by Western blot analysis; type: cell-based
BT-474 [5] = experiment: Antiproliferative activity against human BT-474 cells assessed as inhibition of cell viability at 10 uM measured after 72 hrs by CellTiter 96 Aqueous One Solution Cell Proliferation Assay relative to control; type: functional
CYP2C9 = CYP2C9 (Homo sapiens, UniProt P11712); experiment: Inhibition of CYP2C9 (unknown origin) at 10 uM relative to control; type: ADME
Sequence of CYP2C9 (P11712 whole entry): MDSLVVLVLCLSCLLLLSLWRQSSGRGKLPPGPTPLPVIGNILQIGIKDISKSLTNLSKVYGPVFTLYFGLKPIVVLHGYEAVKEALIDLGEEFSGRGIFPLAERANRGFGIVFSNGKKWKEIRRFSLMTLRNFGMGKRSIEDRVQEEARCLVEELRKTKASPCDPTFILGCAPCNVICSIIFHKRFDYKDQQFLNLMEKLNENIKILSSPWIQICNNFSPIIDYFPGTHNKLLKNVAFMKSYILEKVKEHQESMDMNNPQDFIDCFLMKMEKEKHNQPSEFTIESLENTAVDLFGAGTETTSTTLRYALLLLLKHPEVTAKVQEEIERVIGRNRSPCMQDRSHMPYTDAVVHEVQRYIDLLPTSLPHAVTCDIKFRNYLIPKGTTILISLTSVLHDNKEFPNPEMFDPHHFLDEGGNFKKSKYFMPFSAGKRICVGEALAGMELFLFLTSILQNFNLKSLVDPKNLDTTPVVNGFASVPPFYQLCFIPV

[6] = tested on: Trastuzumab-resistant JIMT-1; experiment: Downregulation of survivin protein level in human Trastuzumab-resistant JIMT-1 cell at 10 uM measured upto 72 hrs by Western blot analysis; type: functional, cell-based
[7] = tested on: Trastuzumab-resistant JIMT-1; experiment: Antitumor activity against human Trastuzumab-resistant JIMT-1 cell xenografted in female BALB/c nude mouse assessed as inhibition of tumor burden at 20 mg/kg, ip administered every other day for 40 days; type: functional, organism-based; settings: time 40.0 day
[8] = AUCinfinity in Sprague-Dawley rat at 10 mg/kg, po; type: ADME, organism-based; settings: in vivo
BT-474 [9] = experiment: Downregulation of cyclinD1 level in human Trastuzumab-sensitive BT474 cell at 10 uM measured upto 72 hrs by Western blot analysis; type: functional, cell-based
[10] = tested on: Trastuzumab-resistant JIMT-1; experiment: Antiproliferative activity against human Trastuzumab-resistant JIMT-1 cell assessed as inhibition of cell viability measured after 72 hrs by CellTiter 96 Aqueous One Solution Cell Proliferation Assay; type: functional, cell-based; settings: Trastuzumab-resistant JIMT-1, 72 h
[11] = Metabolic stability in human liver microsomes assessed as parent compound remaining measured after 30 mins; type: ADME, Microsome; settings: read-out: Stability
CYP2D6 = CYP2D6 (Homo sapiens, UniProt P10635); experiment: Inhibition of CYP2D6 (unknown origin) at 10 uM relative to control; type: ADME
Sequence of CYP2D6 (P10635 whole entry): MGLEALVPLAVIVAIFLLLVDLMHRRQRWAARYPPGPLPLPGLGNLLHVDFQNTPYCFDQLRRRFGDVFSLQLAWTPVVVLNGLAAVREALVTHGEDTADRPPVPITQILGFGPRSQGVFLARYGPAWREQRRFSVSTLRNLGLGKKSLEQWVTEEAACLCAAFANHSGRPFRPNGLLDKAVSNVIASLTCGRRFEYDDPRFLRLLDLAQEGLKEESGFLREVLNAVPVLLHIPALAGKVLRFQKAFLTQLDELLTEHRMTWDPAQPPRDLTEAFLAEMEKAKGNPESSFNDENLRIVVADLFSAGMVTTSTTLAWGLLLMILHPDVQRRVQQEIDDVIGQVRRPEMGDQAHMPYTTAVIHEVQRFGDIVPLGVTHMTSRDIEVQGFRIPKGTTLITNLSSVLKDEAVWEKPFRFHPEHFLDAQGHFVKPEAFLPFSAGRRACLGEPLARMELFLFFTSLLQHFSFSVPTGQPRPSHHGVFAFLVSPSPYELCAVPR

[12] = target: Heat shock protein HSP 90-alpha (Homo sapiens) (UniProt P07900); experiment: Inhibition of HSP90alpha in human Trastuzumab-resistant JIMT-1 cell assessed as reduction in Akt phosphorylation level at Ser473 residues at 10 uM measured upto 72 hrs by Western blot analysis; type: cell-based
JIMT-1 = experiment: Antiproliferative activity against human JIMT-1 cells assessed as inhibition of cell viability at 10 uM measured after 72 hrs by CellTiter 96 Aqueous One Solution Cell Proliferation Assay relative to control; type: functional
hERG (KCNH2) [13] = target: T1, hERG (KCNH2) (Homo sapiens, UniProt Q12809); experiment: Inhibition of human ERG expressed in CHO cells at 3 uM by whole-cell patch clamp assay relative to control; type: toxicity, cell-based; settings: CHO cells expressing hERG
T1 sequence (Q12809 whole entry): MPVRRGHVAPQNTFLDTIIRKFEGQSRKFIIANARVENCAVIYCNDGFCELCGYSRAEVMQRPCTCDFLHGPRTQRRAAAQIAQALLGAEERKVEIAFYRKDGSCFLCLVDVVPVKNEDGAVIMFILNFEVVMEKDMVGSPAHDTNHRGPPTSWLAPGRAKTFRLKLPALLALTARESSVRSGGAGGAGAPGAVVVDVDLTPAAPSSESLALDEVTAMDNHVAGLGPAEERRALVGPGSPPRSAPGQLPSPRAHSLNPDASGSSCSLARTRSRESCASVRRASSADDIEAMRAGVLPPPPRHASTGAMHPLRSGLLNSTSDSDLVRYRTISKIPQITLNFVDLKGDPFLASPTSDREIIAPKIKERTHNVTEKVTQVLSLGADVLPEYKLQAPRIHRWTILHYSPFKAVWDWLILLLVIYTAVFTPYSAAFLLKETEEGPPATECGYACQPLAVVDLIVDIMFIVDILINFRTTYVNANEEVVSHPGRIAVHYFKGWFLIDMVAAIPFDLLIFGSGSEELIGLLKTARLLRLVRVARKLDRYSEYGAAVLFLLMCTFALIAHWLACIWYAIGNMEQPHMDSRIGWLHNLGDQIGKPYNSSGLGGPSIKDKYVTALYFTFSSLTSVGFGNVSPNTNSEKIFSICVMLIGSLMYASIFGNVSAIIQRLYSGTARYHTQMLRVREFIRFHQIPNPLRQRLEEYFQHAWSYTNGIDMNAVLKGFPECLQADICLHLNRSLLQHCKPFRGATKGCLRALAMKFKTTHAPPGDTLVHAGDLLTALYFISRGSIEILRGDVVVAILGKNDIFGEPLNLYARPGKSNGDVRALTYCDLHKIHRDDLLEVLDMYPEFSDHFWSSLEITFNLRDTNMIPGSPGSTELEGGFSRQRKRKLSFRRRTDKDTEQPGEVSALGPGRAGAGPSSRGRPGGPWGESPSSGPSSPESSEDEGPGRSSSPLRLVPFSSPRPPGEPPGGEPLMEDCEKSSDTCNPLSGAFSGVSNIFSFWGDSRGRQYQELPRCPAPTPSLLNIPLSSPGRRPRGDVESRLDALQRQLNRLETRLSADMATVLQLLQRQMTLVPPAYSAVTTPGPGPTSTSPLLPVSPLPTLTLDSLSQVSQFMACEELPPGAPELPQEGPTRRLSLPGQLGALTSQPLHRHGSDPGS

[14] = target: Heat shock protein HSP 90-alpha (Homo sapiens) (UniProt P07900); experiment: Inhibition of PPID binding to C-terminal Hsp90-alpha CTD (unknown origin) at 500 uM by Alpha screen microplate reader analysis
[15] = C0 in Sprague-Dawley rat at 5 mg/kg, iv; type: ADME, organism-based; settings: in vivo
[16] = Genotoxicity in Salmonella typhimurium TA98 in presence of rat liver S9 fraction by Ames test; type: toxicity, subcellular; settings: salmonella enterica subsp. enterica serovar typhimurium
CYP2C19 = CYP2C19 (Homo sapiens, UniProt P33261); experiment: Inhibition of CYP2C19 (unknown origin) at 10 uM relative to control; type: ADME
Sequence of CYP2C19 (P33261 whole entry): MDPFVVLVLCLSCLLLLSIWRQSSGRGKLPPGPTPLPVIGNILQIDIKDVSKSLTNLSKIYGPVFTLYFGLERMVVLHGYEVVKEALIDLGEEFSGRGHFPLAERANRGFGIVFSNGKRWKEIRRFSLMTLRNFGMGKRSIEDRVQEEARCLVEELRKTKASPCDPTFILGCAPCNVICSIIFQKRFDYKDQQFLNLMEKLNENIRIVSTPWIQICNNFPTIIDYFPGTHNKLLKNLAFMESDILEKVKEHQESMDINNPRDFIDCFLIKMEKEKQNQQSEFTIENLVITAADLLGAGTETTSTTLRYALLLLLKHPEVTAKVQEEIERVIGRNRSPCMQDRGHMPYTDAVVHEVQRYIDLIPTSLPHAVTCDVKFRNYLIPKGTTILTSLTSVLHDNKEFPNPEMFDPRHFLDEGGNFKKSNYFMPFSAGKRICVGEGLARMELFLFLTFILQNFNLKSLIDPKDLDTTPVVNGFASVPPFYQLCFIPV

[17] = Volume of distribution in Sprague-Dawley rat at 5 mg/kg, iv; type: ADME, organism-based; settings: in vivo
[18] = tested on: Trastuzumab-resistant JIMT-1; experiment: Antitumor activity against human Trastuzumab-resistant JIMT-1 cell xenografted in female BALB/c nude mouse assessed as inhibition of tumor volume at 20 mg/kg, ip administered every other day for 40 days; type: functional, organism-based; settings: time 40.0 day
[19] = Half life in Sprague-Dawley rat at 10 mg/kg, po; type: ADME, organism-based; settings: in vivo
[20] = tested on: Trastuzumab-resistant JIMT-1; experiment: Antitumor activity against human Trastuzumab-resistant JIMT-1 cell xenografted in female BALB/c nude mouse assessed as inhibition of tumor weight at 20 mg/kg, ip administered every other day for 40 days; type: functional, organism-based; settings: time 40.0 day
[21] = AUClast in Sprague-Dawley rat at 10 mg/kg, po; type: ADME, organism-based; settings: in vivo
[22] = Tmax in Sprague-Dawley rat at 10 mg/kg, po; type: ADME, organism-based; settings: in vivo
[23] = Half life in Sprague-Dawley rat at 5 mg/kg, iv; type: ADME, organism-based; settings: in vivo
[24] = MRTinfinity in Sprague-Dawley rat at 10 mg/kg, po; type: ADME, organism-based; settings: in vivo
hERG (KCNH2) [25] = target: T1, hERG (KCNH2); experiment: Inhibition of human ERG expressed in CHO cells at 30 uM by whole-cell patch clamp assay relative to control; type: toxicity, cell-based; settings: CHO cells expressing hERG
[26] = Cmax in Sprague-Dawley rat at 10 mg/kg, po; type: ADME, organism-based; settings: in vivo
Homo sapiens = species on record: Homo sapiens; experiment: Inhibition of N-terminal HSP90 (unknown origin) at 10 uM by AlphaLISA assay
[27] = tested on: Trastuzumab-resistant JIMT-1; experiment: Downregulation of cyclinD1 level in human Trastuzumab-resistant JIMT-1 cell at 10 uM measured upto 72 hrs by Western blot analysis; type: functional, cell-based
[28] = Volume of distribution in Sprague-Dawley rat at 10 mg/kg, po; type: ADME, organism-based; settings: in vivo
[29] = Genotoxicity in Salmonella typhimurium TA98 in absence of rat liver S9 fraction by Ames test; type: toxicity; settings: salmonella enterica subsp. enterica serovar typhimurium
[30] = AUCinfinity in Sprague-Dawley rat at 5 mg/kg, iv; type: ADME, organism-based; settings: in vivo
[31] = target: Heat shock protein HSP 90-alpha (Homo sapiens) (UniProt P07900); experiment: Inhibition of HSP90alpha in human Trastuzumab-resistant JIMT-1 cell assessed as reduction in HER2 phosphorylation level at Tyr1221/1222 residues at 10 uM measured upto 72 hrs by Western blot analysis; type: cell-based
[32] = Oral bioavailability in Sprague-Dawley rat at 10 mg/kg; type: ADME, organism-based; settings: in vivo
[33] = MRTinfinity in Sprague-Dawley rat at 5 mg/kg, iv; type: ADME, organism-based; settings: in vivo
CYP3A4 = CYP3A4 (Homo sapiens, UniProt P08684); experiment: Inhibition of CYP3A4 (unknown origin) at 10 uM relative to control; type: ADME
Sequence of CYP3A4 (P08684 whole entry): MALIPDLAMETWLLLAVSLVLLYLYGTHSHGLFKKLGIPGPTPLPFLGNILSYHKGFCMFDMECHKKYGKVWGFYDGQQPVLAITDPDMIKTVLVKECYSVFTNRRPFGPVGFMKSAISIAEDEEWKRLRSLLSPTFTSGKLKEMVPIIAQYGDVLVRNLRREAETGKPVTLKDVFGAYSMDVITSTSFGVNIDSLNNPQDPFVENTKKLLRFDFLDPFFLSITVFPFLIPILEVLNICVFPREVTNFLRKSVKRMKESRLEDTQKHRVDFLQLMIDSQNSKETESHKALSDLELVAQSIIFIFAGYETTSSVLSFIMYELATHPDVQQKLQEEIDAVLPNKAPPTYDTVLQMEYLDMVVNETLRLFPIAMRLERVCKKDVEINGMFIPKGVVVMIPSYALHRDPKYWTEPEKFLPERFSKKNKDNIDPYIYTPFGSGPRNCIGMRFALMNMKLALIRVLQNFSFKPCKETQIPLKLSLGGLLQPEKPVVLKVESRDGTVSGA

[34] = Antiproliferative activity against human Trastuzumab-sensitive BT474 cell assessed as inhibition of cell viability measured after 72 hrs by CellTiter 96 Aqueous One Solution Cell Proliferation Assay; type: functional, cell-based; settings: BT-474, 72 h
hERG (KCNH2) [35] = target: T1, hERG (KCNH2); experiment: Inhibition of human ERG at 10 uM by fluorescence polarization assay relative to control
[36] = Toxicity in female BALB/c nude mouse assessed as effect on body weight at 20 mg/kg, ip administered every other day for 40 days; type: organism-based; settings: in vivo, 960 h, time 40 day
[37] = target: Heat shock protein HSP 90-alpha (Homo sapiens) (UniProt P07900); experiment: Inhibition of HSP90alpha in human Trastuzumab-sensitive BT474 cell assessed as reduction in Akt phosphorylation level at Ser473 residues at 10 uM measured upto 72 hrs by Western blot analysis; type: cell-based
[38] = Clearance in Sprague-Dawley rat at 10 mg/kg, po; type: ADME, organism-based; settings: in vivo
[39] = Genotoxicity in Salmonella typhimurium TA100 in absence of rat liver S9 fraction by Ames test; type: toxicity; settings: salmonella enterica subsp. enterica serovar typhimurium
[40] = AUC/dose in Sprague-Dawley rat at 5 mg/kg, iv; type: ADME, organism-based; settings: in vivo
[41] = Genotoxicity in Salmonella typhimurium TA100 in presence of rat liver S9 fraction by Ames test; type: toxicity, subcellular; settings: salmonella enterica subsp. enterica serovar typhimurium
[42] = tested on: Trastuzumab-resistant JIMT-1; experiment: Downregulation of HER2 expression in human Trastuzumab-resistant JIMT-1 cell at 10 uM measured upto 72 hrs by Western blot analysis; type: functional, cell-based
HEK293 = experiment: Cytotoxicity against HEK293 cells assessed as reduction in cell viability at 10 uM measured after 72 hrs by CellTiter 96 Aqueous One Solution Cell Proliferation Assay; type: toxicity, cell-based; settings: human, hek293, 72 h
[43] = tested on: Trastuzumab-resistant JIMT-1; experiment: Downregulation of AKT expression in human Trastuzumab-resistant JIMT-1 cell at 10 uM measured upto 72 hrs by Western blot analysis; type: functional, cell-based
[44] = Stability in rat plasma assessed as compound remaining incubated for 120 mins; type: ADME, cell-free; settings: read-out: Stability
[45] = AUClast in Sprague-Dawley rat at 5 mg/kg, iv; type: ADME, organism-based; settings: in vivo
[46] = Stability in human plasma assessed as compound remaining incubated for 120 mins; type: ADME, cell-free; settings: read-out: Stability
BT-474 [47] = experiment: Downregulation of survivin protein level in human Trastuzumab-sensitive BT474 cell at 10 uM measured upto 72 hrs by Western blot analysis; type: functional, cell-based
CYP1A2 = target: T2, CYP1A2 (Homo sapiens, UniProt P05177); experiment: Inhibition of CYP1A2 (unknown origin) at 10 uM relative to control; type: ADME
T2 sequence (P05177 whole entry): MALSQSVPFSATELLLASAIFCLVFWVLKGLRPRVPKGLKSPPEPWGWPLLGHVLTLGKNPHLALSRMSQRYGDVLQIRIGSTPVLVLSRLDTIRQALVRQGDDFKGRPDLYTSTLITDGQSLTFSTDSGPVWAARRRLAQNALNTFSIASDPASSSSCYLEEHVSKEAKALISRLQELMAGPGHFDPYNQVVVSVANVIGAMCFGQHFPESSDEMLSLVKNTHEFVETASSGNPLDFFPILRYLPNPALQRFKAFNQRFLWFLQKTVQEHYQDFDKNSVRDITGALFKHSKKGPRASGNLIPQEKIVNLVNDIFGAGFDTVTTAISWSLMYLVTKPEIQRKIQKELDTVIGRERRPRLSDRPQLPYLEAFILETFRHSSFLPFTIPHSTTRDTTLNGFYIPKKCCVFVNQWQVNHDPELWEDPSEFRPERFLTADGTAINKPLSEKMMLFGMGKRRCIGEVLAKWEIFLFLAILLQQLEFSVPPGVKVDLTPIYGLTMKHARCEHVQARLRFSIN

BT-474 [48] = experiment: Downregulation of HER2 expression in human Trastuzumab-sensitive BT474 cell at 10 uM measured upto 72 hrs by Western blot analysis; type: functional, cell-based
[49] = Clearance in Sprague-Dawley rat at 5 mg/kg, iv; type: ADME, organism-based; settings: in vivo

## COc1c(C(=O)Nc2ccc3c(C)nn(CCC4CCN(C)CC4)c3c2)ccc2c1C=CC(C)(C)O2
[1]
  AUC/dose: 103.2 ng·h/mL
[2]
  remaining at 0.5 h: 62.8%
BT-474 [3]
  Activity: Active
[4]
  inhibition: Active
BT-474 [5]
  inhibition at 10 µM: < 20%
CYP2C9
  inhibition at 10 µM: 78.2%
[6]
  Activity: Active
[7]
  Activity: Active
[8]
  AUC: 2957 ng·h/mL
BT-474 [9]
  Activity: Active
[10]
  IC50: 4.42 µM
[11]
  remaining at 0.5 h: 94.5%
CYP2D6
  inhibition at 10 µM: 55.3%
[12]
  inhibition: Active
JIMT-1
  inhibition at 10 µM: < 20%
hERG (KCNH2) [13]
  inhibition at 3 µM: 30.4%
[14]
  inhibition: Active
[15]
  C0: 342 ng/mL
[16]
  Activity: Non-Toxic
CYP2C19
  inhibition at 10 µM: 56.3%
[17]
  Vd: 31.2 L/kg
[18]
  Activity: Active
[19]
  half-life: 576 min
[20]
  Activity: Active
[21]
  AUC(0-t): 1030 ng·h/mL
[22]
  Tmax: 4 h
[23]
  half-life: 264 min
[24]
  MRT inf: 15 h
hERG (KCNH2) [25]
  inhibition at 30 µM: 87.1%
[26]
  Cmax: 159 ng/mL
Homo sapiens
  inhibition: inactive
[27]
  Activity: Active
[28]
  Vd: 3.6 L/kg
[29]
  Activity: Non-Toxic
[30]
  AUC: 1059 ng·h/mL
[31]
  inhibition: Active
[32]
  F: 66.9%
[33]
  MRT inf: 5.4 h
CYP3A4
  inhibition at 10 µM: 73%
[34]
  IC50: 6.86 µM
hERG (KCNH2) [35]
  inhibition at 10 µM: 57%
[36]
  Activity: Non-Toxic
[37]
  inhibition: Active
[38]
  CL/F: 47.3 mL/min
[39]
  Activity: Non-Toxic
[40]
  AUC/dose: 154.3 ng·h/mL
[41]
  Activity: Non-Toxic
[42]
  Activity: Active
HEK293
  Activity: Toxic
[43]
  Activity: Active
[44]
  remaining at 2 h: 98.3%
[45]
  AUC(0-t): 771 ng·h/mL
[46]
  remaining at 2 h: 100%
BT-474 [47]
  Activity: Active
CYP1A2
  inhibition at 10 µM: > 100%
BT-474 [48]
  Activity: Active
[49]
  clearance: 84.5 mL/min
